For series [1], the target named is recombinant HIV-1 RT, ref RT (HIV type B, clone BH 10) (Human immunodeficiency virus type 1 group M subtype B, UniProt P03366). Description: RT assay: inhibition of RNA dependent DNA polymerisation (modified Lenti RT assay). The format is biochemical. On the set-up: performed by recombinant HIV-1 RT:s with defined. The following applies: enzyme/inhibitor preincubated 30 minutes at 33° C., BrdUTP 0.35 μM, odT22 0.03 ng per well, 3 hours, read-out: IC50 of indicated inhibitor in RT assay. As for the experimental part: (§1) The flourimetric RT assay (Cavidi® Lenti RT activity kit), available from Cavidi Tech, Uppsala, Sweden, was used for the determination of RT activity. In short, poly(rA) covalently bound to the wells of a 96 well microtiter plate serves as template for the incorporation of 5-bromodeoxyuridine 5′-triphosphate (BrdUTP) during the reverse transcription step at 33° C. The amount of bromodeoxyuridine monophosphate (BrdUMP) incorporated into DNA is detected with an alkaline phosphatase (Ap) conjugated, anti-BrdU monoclonal antibody. An Ap substrate, 4-methylumbelliferyl phosphate, is finally used for fluorimetric product detection.
(§2) (i) Protocol for determination of inhibition of RNA dependent DNA polymerisation: The inhibition studies were performed in a modified Lenti RT assay. The inhibitors were serially diluted in five steps, whereupon enzyme dilution was added and the enzyme/inhibitor mixtures were incubated for 30 minutes at 33° C. The enzyme reaction was initiated by addition of 100 μl aliquots of the enzyme/inhibitor mixture to each well of a microtiter plate containing 100 μl RT reaction mixture per well. The polymerase reaction was allowed to proceed for 3 hours at 33° C., whereupon the reaction was terminated by a wash of the plate. […] The amount of RT used was standardised to an activity corresponding to 90-130 pg (7-10×10^−16 mol) reference HIV-1 RT per well […]

Series [2] addresses T1, recombinant HIV-1 RT E478Q (Human immunodeficiency virus type 1 group M subtype B, UniProt P03366, E1077Q).
T1 construct: performed by recombinant HIV-1 RT:s with defined
The note with it: binding 90 min at 33° C. The method, then: (§3) (iii) Protocol for RT binding inhibition (BIC) assay: The study was performed in a modified DNA polymerase assay. The inhibitors were serially diluted in five steps, enzyme dilution was added and the enzyme/inhibitor mixtures were incubated for 30 minutes at 33° C. Aliquots of the enzyme/inhibitor mixture were transferred to each well of a microtiter plate containing either immobilised primer, or primer/template. The enzyme was allowed to bind to the immobilised polymer for 90 min at 33° C. The amount of RT used was standardised to an activity corresponding to 40-60 pg (3.3-5.0×10^−16 mol) reference HIV-1 RT per well. The plates were then washed to remove unbound enzyme whereupon the amount of bound enzyme was determined by addition of the appropriate reaction solution for polymerisation (i e a reaction solution devoid of primer for studies of primer binding and a reaction solution devoid of both primer and template for studies of binding to primed template). The polymerase reaction was allowed to proceed for 3 hours at 33° C., whereupon the reaction was terminated by a wash of the plate.
(§4) The capacity of the indicated substances to inhibit the binding to primer or to primed DNA template of a panel of recombinant HIV 1 subtype B RTs was studied according to “Protocol for RT binding inhibition (BIC) assay” (protocol (iii) above).

For series [3], the target named is T2, recombinant HIV-1 RT L100I (Human immunodeficiency virus type 1 group M subtype B, UniProt P03366, L699I).
T2 construct: performed by recombinant HIV-1 RT:s with defined
The following applies: binding 90 min at 33° C. As for the experimental part:
as §3, §4

Series [4] addresses T3, recombinant HIV-1 RT L100I/K103N (Human immunodeficiency virus type 1 group M subtype B, UniProt P03366, K702N/L699I).
T3 construct: performed by recombinant HIV-1 RT:s with defined
Description: RT assay: inhibition of RNA dependent DNA polymerisation (modified Lenti RT assay). The following applies: enzyme/inhibitor preincubated 30 minutes at 33° C., BrdUTP 0.35 μM, odT22 0.03 ng per well, 3 hours, read-out: IC50 of indicated inhibitor in RT assay. The class given is biochemical. As for the experimental part: as §1, §2

Series [5] has as its target T1, recombinant HIV-1 RT E478Q. The description is as above. The note with it: read-out: IC50 of indicated inhibitor in RT assay. The class given is biochemical. The method, then: as §1
(i) Protocol for determination of inhibition of RNA dependent DNA polymerisation: The inhibition studies were performed in a modified Lenti RT assay. The inhibitors were serially diluted in five steps, whereupon enzyme dilution was added and the enzyme/inhibitor mixtures were incubated for 30 minutes at 33° C. The enzyme reaction was initiated by addition of 100 μl aliquots of the enzyme/inhibitor mixture to each well of a microtiter plate containing 100 μl RT reaction mixture per well. The polymerase reaction was allowed to proceed for 3 hours at 33° C., whereupon the reaction was terminated by a wash of the plate. […] The amount of RT used was standardised to an activity corresponding to 90-130 pg (7-10×10^−16 mol) reference HIV-1 RT per well
The capacity of the indicated substances to inhibit the enzymes in a panel of recombinant HIV 1 subtype B RTs was studied according to “Protocol for determination of inhibition of RNA dependent DNA polymerisation” (protocol (i) above). The final nucleotide substrate (BrdUTP) concentration was 0.35 μM, and the primer (odT22) amount was 0.03 ng per well.
The RT reaction time used was 3 hours and the results are depicted in FIG. 8 (A-C).

In series [6] the target is T4, recombinant HIV-1 RT K103N/E478Q (Human immunodeficiency virus type 1 group M subtype B, UniProt P03366, E1077Q/K702N).
T4 construct: performed by recombinant HIV-1 RT:s with defined
The format is biochemical. The note with it: second strand DNA synthesis, preincubation 30 minutes at 33° C., 3 hours, read-out: IC50 of indicated inhibitor in DNAp assay. The text has this: (§5) The flourimetric DNA-polymerase assay used is available from Cavidi Tech AB, Uppsala, Sweden. It is based on a short DNA primer analogous to a part of the tRNA^Lys3 sequence. The template is a single stranded deoxynucleotide template with part of the sequence complementary to the primer. The enzyme reaction is dependent on all four deoxynucleotide bases. The thymidine triphosphate is, however, replaced by BrdUTP. The amount of BrdUMP incorporated into DNA during the polymerase reaction is detected with an alkaline phosphatase (Ap) conjugated anti-BrdU monoclonal antibody. An Ap substrate, 4-methylumbelliferyl phosphate, is finally used for fluorimetric product detection.
(§6) (ii) Protocol for determination of inhibition of second strand synthesis on a variable DNA template: The inhibition studies were performed in a modified DNA polymerase assay. The inhibitors were serially diluted in five steps, enzyme dilution was added and the enzyme/inhibitor mixtures were incubated for 30 minutes at 33° C. The enzyme reaction was initiated by addition of 75 μl aliquots of the enzyme/inhibitor mixture to each well of a microtiter plate containing 75 μl DNA polymerase reaction mixture per well. The polymerase reaction was allowed to proceed for 3 hours at 33° C. whereupon the reaction was terminated by a wash of the plate. […] The amount of RT used was standardised to an activity corresponding to 40-60 pg (3.3-5.0×10^−16 mol) reference HIV-1 RT per well.
(§7) The capacity of the indicated substances to inhibit each enzyme in a panel of recombinant HIV 1 subtype B RTs was studied according to “Protocol for determination of inhibition of second strand synthesis on variable DNA template” (protocol (ii) above).

Series [7] addresses T1, recombinant HIV-1 RT E478Q. The format is biochemical. The note with it: second strand DNA synthesis, preincubation 30 minutes at 33° C., 3 hours, read-out: IC50 of indicated inhibitor in DNAp assay.
From the text: as §5, §6, §7

Series [8] has as its target T2, recombinant HIV-1 RT L100I. The format is biochemical. The note with it: second strand DNA synthesis, preincubation 30 minutes at 33° C., 3 hours, read-out: IC50 of indicated inhibitor in DNAp assay.
From the text: as §5, §6, §7

The mark [9] stands for this setting: immobilised primer, read-out: Inhibition of binding to primer (BIC50).
The mark [10] stands for this setting: immobilised primer/template, read-out: Inhibition of binding to template/primer (BIC50).
[11] abbreviates: enzyme/inhibitor preincubated 30 minutes at 33° C., BrdUTP 0.35 μM, odT22 0.03 ng per well, 3 hours.

Read-outs that look alike come from different tables or passages of the source. Strand notation (5' to 3'): a small letter for the sugar, then the base; units joined by * are phosphorothioate-linked, units joined directly phosphodiester-linked; [ ] holds rarer units or linkages, { } end groups; capitals alone tell only the bases. r = 2'-OH (RNA)

In the case of “substance 199: 35-mer RNA molecule having the sequence set out in SEQ ID NO:5; similar to SEQ ID NO:4 with some naturally occurring nucleotide derivatives (GCUCAGNCGGNAGAGCANCAGACUUUUAANCUGAN; RNA, backbone, methylation of C and the base at N not given here; naturally occurring modified nucleosides at n positions)”, the IC50 is 6.6 nM in series [1]; 7 nM in series [2] (setting [9]); 14 nM in series [2] (setting [10]); 7 nM in series [3] (setting [9]); 12 nM in series [4]; 11 nM in series [5] (RT and inhibitor added directly to the assay mixture without preincubation). Also, the IC50 in series [5] (setting [11]) came to 6 nM; in series [6] it was 51 nM; in series [7] it was 34 nM; in series [8] it was 36 nM.

Turning to “substance 198: 15-mer RNA phosphorothioate with the base sequence of tRNALys3 anticodon stem and loop, SEQ ID NO:7 (rC*rA*rG*rA*rC*rU*rU*rU*rU*rA*rA*rU*rC*rU*rG) [reference compound]”, the IC50 in series [1] was 470 nM; in series [2] (setting [9]), more than 1000 nM; in series [2] (setting [10]), more than 1000 nM; in series [3] (setting [9]) it was more than 1000 nM; in series [3] (setting [10]), more than 1000 nM; in series [4], 900 nM. For the same substance, the IC50 in series [5] (setting [11]) was 320 nM; in series [6], 1000 nM; in series [7], 1000 nM; in series [8], 220 nM.

These data come from patent US20040053872A1, “New sequences” (priority 2000, published 2004).
